Experimental data as given in patent US20250354192A1, “METHODS FOR QUANTIFYING LIVE BACTERIA” (priority 2022, published 2025).

Assays:
E. coli = assay: Cell doubling control with DL-serine hydroxamate, OD600 and EDA click labeling on PIPER; assay type: cell-based
Method: E. coli was grown overnight at 37° C. The next day, cells were diluted into fresh media and grown for 2 hours. Next, +/−DL-serine hydroxamate (SHX; 1 mg/ml) and EDA (1 mM) were added. OD600 was taken every 20 min for 90 min. Aliquots of cells at the last time point were pelleted by centrifugation (10 min 10,000 g), and supernatant was discarded. Bacteria were washed with 1 mL of 1× PBS, pelleted by centrifugation (10 min 10,000 g), and supernatant was discarded. Cell pellets were resuspended in click reaction solution containing 200 μM copper sulfate (II) (MilliporeSigma, Burlington, MA), 128 μM THPTA ligand (Lumiprobe, Hunt Valley, MD), 2.5 mM Ascorbic acid (MilliporeSigma, Burlington, MA), 25 μM CF488 picolyl azide fluorescent dye (Biotium, Fremont, CA) and incubated for 30 min at room temperature. Cells were pelleted by centrifugation (10 min 10,000 g), supernatant was discarded, and pellets were resuspended 1 mL of 1× PBS. Finally, pellets were resuspended in PBS, mixed with ferrofluid and processed in the non-capture assay on PIPER. An automated bacterial image recognition algorithm determined labeled cell counts.

[1] = tested on: eight (8) different strains of log phase bacteria; assay: Quantification of cells labeled with NADA-Green in eight strains, PIPER image recognition algorithm; assay type: cell-based; details: 1 mM, 60 minutes
Source text: FIG. 5A depicts the quantification of cells labeled with NADA-Green in eight (8) different strains of log phase bacteria. FIG. 5B depicts the quantification of cell labelling efficiency by NADA-Green in eight (8) different strains of log phase bacteria (SE—Salmonella enterica; EC—Escherichia coli; KP—Klebsiella pneumoniae; CF—Citrobacter freundii; SA—Staphylococcus aureus; BC—Bacillus cereus; LM—Listeria monocytogenes; PA—Pseudomonas aeruginosa), determined as a percentage of NADA-labelled PIPER cell counts to the SYBR-labelled PIPER cell counts. Cells growing at 37° C. in BHI media were incubated with 1 mM NADA-Green (Bio-Techne, Minneapolis, MN) for 60 minutes. Cells were pelleted by centrifugation (10 min 10,000 g) to remove the excess dye, resuspended in 1×PBS, mixed with ferrofluid, and processed on PIPER in a non-capture assay. An automated bacterial image recognition algorithm determined labeled cell counts.

[2] = tested on: gram-positive and gram-negative bacteria; assay: Labeling of gram-positive and gram-negative bacteria with NADA-Green, PIPER non-capture assay; assay type: cell-based, five (5) different strains of log phase bacteria; details: 1 mM, 90 minutes
Method: FIG. 4 depicts the labeling of gram-positive and gram-negative bacteria with NADA-Green with the five (5) different strains of log phase bacteria (see FIGS. 2A-E) growing at 37° C. in BHI media, and then incubated with 1 mM NADA-Green (Bio-Techne, Minneapolis, MN) for 90 minutes. Cells were pelleted by centrifugation (10 min 10,000 g) to remove the excess dye, resuspended in 1×PBS, mixed with ferrofluid, and processed on PIPER in a non-capture assay.

[3] = tested on: Salmonella Typhimurium, Staphylococcus aureus, or a mixture of the two strains; assay: Labeling of a mixed culture with NADA-Green, PIPER non-capture assay; assay type: cell-based; details: 1 mM, 60 minutes, 37° C.
Method: Even with efficient uptake of the D-amino acid analog, gram-negative bacteria may not stain as brightly as gram-positive bacteria because gram-negative bacteria have a much thinner peptidoglycan layer. […] For example, FIGS. 12A-B depict labeling of a mixed culture with NADA-Green. A log phase culture of Salmonella Typhimurium, Staphylococcus aureus, or a mixture of the two strains was incubated at 37° C. with 1 mM NADA-Green Bio-Techne, Minneapolis, MN) for 60 minutes. Cells were pelleted by centrifugation (10 min 10,000 g) to remove the excess dye, resuspended in 1×PBS, mixed with ferrofluid, and processed on PIPER in a non-capture assay. […] Salmonella cells appear smaller and dimmer in the image than Staph. aureus cells.

[4] = tested on: Bacillus, Enterococcus, Listeria, Salmonella, and Klebsiella; assay: NADA-Green labeling of live versus heat-killed bacteria, PIPER non-capture assay; assay type: cell-based; details: 1 mM, 60 minutes; live log phase or heat-killed 15 minutes at 70° C.
Method: Accordingly, as shown in FIG. 2A-E, NADA-Green labels live bacteria and illustrates five (5) different strains (Bacillus, Enterococcus, Listeria, Salmonella, and Klebsiella) of log phase bacteria growing at 37° C. in brain heart infusion (BHI) media or heat-killed for 15 minutes at 70° C. were incubated with or without the fluorescent D-amino acid, NADA-Green at 1 mM (Bio-Techne, Minneapolis, MN) for 60 minutes. Cells were pelleted to remove the excess dye and resuspended in 1X phosphate buffered saline (PBS). Each sample was then split into two tubes. To one of the tubes, SYBR Green (ThermoFisher Scientific, Waltham, Massachusetts) was added in 1:100 dilution. All samples were processed on Ancera Inc.'s PIPER™ platform (“PIPER”) in a non-capture assay and analyzed by a bacterial image recognition algorithm to determine labeled cell counts. […] SYBR labeling confirmed that the dead cells remained intact on the instrument.

Salmonella Typhimuirum = assay: Time course of labeling with NADA-Green, PIPER cartridge coated with Salmonella-specific antibody; assay type: cell-based; details: 1 mM, 30 minutes or 90 minutes, 37° C. in BHI
Method: Cells were pelleted by centrifugation (10 min 10,000 g) to remove the excess dye, resuspended in 1×PBS, mixed with ferrofluid, and processed on PIPER using a cartridge having areas coated with a Salmonella-specific antibody.

[5] = tested on: Klebsiella pneumoniae (KP); assay: APC petrifilm counts before and after 90 minutes incubation with or without chloramphenicol; assay type: cell-based; details: 5 μg/mL, 37° C. for 90 minutes
Method: (§1) Eight (8) different species of bacteria (Salmonella enterica, E. coli, Klebsiella pneumoniae, Citrobacter freundii, Staphylococcus aureus, Bacillus cereus, Listeria monocytogenes and Pseudomonas aeruginosa) were propagated from frozen stocks onto TSA plates and incubated at 37° C. for 24 hours. To induce cold-stress, a loopful of cells from each plate was transferred into 3 mL of Butterfield's Phosphate Buffer, vortexed to suspend the cells, and placed at 4° C. for 1 day. The following day, cells from each culture were pelleted for 10 minutes at 10,000 g and resuspended in BHI (FIG. 19A) or BHI containing 5 μg/mL of chloramphenicol (FIG. 19B). Each culture was normalized to an absorbance value at 600 nm (OD600) of 0.05 and loaded in triplicate onto a sterile microplate at 0.2 mL per well. The microplate was covered with BreatheEasy film and bacterial growth was monitored using a SpectroStar Nano spectrophotometer (BMG Labtech, Cary, NC) for 24 hours. During growth, the temperature was maintained at 37° C. and the plate was automatically shaken prior to OD600 readings every 10 minutes. […] A cold-stressed Klebsiella pneumoniae (KP) culture prepared as described above was transferred into BHI or BHI containing 5 μg/mL of chloramphenicol and either plated immediately or placed at 37° C. for 90 minutes. […]

[6] = tested on: Klebsiella pneumoniae (KP); assay: 3-step metabolic labeling with EDA with or without chloramphenicol, detection on PIPER; assay type: cell-based; details: 5 μg/mL, 1 mM EDA, 37° C. for 90 min
Method: as §1

[7] = tested on: Eight (8) different species of bacteria; assay: Bacterial growth (OD600) of cold-stressed cultures in BHI with or without chloramphenicol; assay type: cell-based; details: 5 μg/mL in BHI, 37° C., 2-hour observation window
Method: Eight (8) different species of bacteria (Salmonella enterica, E. coli, Klebsiella pneumoniae, Citrobacter freundii, Staphylococcus aureus, Bacillus cereus, Listeria monocytogenes and Pseudomonas aeruginosa) were propagated from frozen stocks onto TSA plates and incubated at 37° C. for 24 hours. To induce cold-stress, a loopful of cells from each plate was transferred into 3 mL of Butterfield's Phosphate Buffer, vortexed to suspend the cells, and placed at 4° C. for 1 day. The following day, cells from each culture were pelleted for 10 minutes at 10,000 g and resuspended in BHI (FIG. 19A) or BHI containing 5 μg/mL of chloramphenicol (FIG. 19B). Each culture was normalized to an absorbance value at 600 nm (OD600) of 0.05 and loaded in triplicate onto a sterile microplate at 0.2 mL per well. The microplate was covered with BreatheEasy film and bacterial growth was monitored using a SpectroStar Nano spectrophotometer (BMG Labtech, Cary, NC) for 24 hours. During growth, the temperature was maintained at 37° C. and the plate was automatically shaken prior to OD600 readings every 10 minutes. […] OD600 observations were validated using the “gold-standard” petrifilm counts (3M) (FIG. 19C). […]

E. coli (ATCC 35421) = details: 5 or 10 minutes with ethanol; cells grown in the presence of EDA
Method: (§2) Experimental Detail: A single colony of each indicated bacteria was inoculated into BHI and incubated overnight at 37° C. On the next day, the cells were diluted into fresh BHI and incubated for 2 h at 37° C. followed by an additional 90-minute incubation in the presence or absence of 1 mM EDA, where indicated. Where indicated, an aliquot of each culture was mixed with 96% ethanol to a final concentration of 70% (A, B) or 25% (C) and incubated for 5 to 10 min at room temperature. Cultures not exposed to ethanol were incubated for an equal amount of time in 1×PBS. Cells were pelleted by centrifugation for 10 min at 10,000 g, and supernatant containing excess EDA and ethanol was discarded. Cells were then resuspended in 300 μL of 1×PBS and pelleted again by centrifugation (10 min at 10,000 g). The 3rd step was carried out by resuspending cell pellets in 0.25 mL of 1×PBS solution containing 200 μM copper sulfate (II) (MilliporeSigma, Burlington, MA), 128 μM THPTA ligand (Lumiprobe, Hunt Valley, MD), 2.5 mM Ascorbic acid (MilliporeSigma, Burlington, MA), 25 μM CF488 picolyl azide fluorescent dye (Biotium, Fremont, CA), and 5% DMSO (Thermo Fisher Scientific, Waltham, MA). After a 30-minute incubation at room temperature, 500 μL of 1×PBS was added to each reaction, and cells were harvested by centrifugation (10 min at 10,000 g). Supernatant containing excess dye and reaction components was discarded, cells were washed with 500 μL of 1×PBS, and the cells were pelleted again by centrifugation. Finally, each cell pellet was resuspended in 0.3 mL of 1×PBS and mixed with an equal volume of ferrofluid. All samples were run on PIPER, and cell counts were generated by image analysis using an automated bacterial image recognition algorithm.

[8] = tested on: Salmonella enterica (ATCC 12023), Klebsiella pneumoniae (ATCC 13882), Citrobacter freundii (ATCC 8090), and E. coli (ATCC 35421); details: ethanol 25%, N=3
Method: as §2

B. cereus (ATCC 33019) = details: ethanol 70%, 5 to 10 min at room temperature
Method: as §2

`NC(CO)C(=O)NO` (racemic) [DL-Serine hydroxamate, DL-serine hydroxamate] was tested, and the “labeling with EDA and click reaction in the presence of the agent” value (E. coli; 1 mg/ml SHX, 1 mM EDA) was “does not prevent labeling” and the “doubling of fast-growing cells (OD600)” value (E. coli; 1 mg/ml, OD600 every 20 min for 90 min) was “slows doubling of fast-growing cells”.

`N[C@H](CNc1ccc([N+](=O)[O-])c2nonc12)C(=O)O` [NADA-Green] was tested, and the “detection of labeled strains by the image recognition algorithm” value [1] was “All labeled strains except Pseudomonas were detected”, the labeling of bacteria [2] was “labels both gram-positive and gram-negative bacteria” and the “PIPER counts in mixed culture versus individual cultures” value [3] was “counts in the mixed culture are approximately additive of the counts for each individual culture”. The “labeled cell counts above background noise, live versus heat-killed cells” value [4] was “Only live cells labeled with NADA-Green were counted above background noise” and the “interference with cell growth or capture by the antibody” value (Salmonella Typhimuirum) was “does not interfere with cell growth or capture by the antibody”.

In the case of `O=C(N[C@H](CO)[C@H](O)c1ccc([N+](=O)[O-])cc1)C(Cl)Cl` [chloramphenicol], the “cell doubling by APC petrifilm counts” value [5] is reported as “prevented cell doubling”, the “PIPER cell counts versus sample without chloramphenicol” value [6] is reported as “slight decrease in cell counts” and the “interference with 3-step metabolic labeling and detection on PIPER” value [6] is reported as “did not interfere with 3-step metabolic labeling and detection on PIPER”. For the same compound, the “doubling (OD600)” value [7] was “prevented doubling in all 8 strains”.

For `CCO` [ethanol], the “detection after ethanol incubation prior to the click reaction” value (E. coli (ATCC 35421)) was “dramatically improved detection”, the “cell counts, cell mean intensity and variability across technical replicates” value [8] was “improved cell counts and/or cell mean intensity and reduced the variability across technical replicates” and the “CuAAC labeling with or without ethanol treatment” value (B. cereus (ATCC 33019)) was “occurred efficiently both with or without ethanol treatment”.
